Laboratory results taken from publication PMC8092326 (mBio, 2021).
Values joined by “and” are separate entries in the source; they are usually repeats but may differ in a detail not shown here. Identical values can stand only once. “Also recorded” adds a separate entry of the source. Like-named read-outs stand apart in the source and are kept apart here. *1 amine or outer side, *2 acyl side, *3 side chain or, on linkers, in order; H or OH if unused. Where a SMILES comes first, the peptide text is derived from it. Bridges are numbered along the chain shown (N, C = ends). Roman numbers before positions name the chains, in order. [ ]: non-standard residue; d: D form. Actinocin(9to1) = Cc1c2oc3c(C)ccc(C(=O)[*:1])c3nc-2c(C(=O)[*:2])c(N)c1=O; NMeV = CN[C@H](C(=O)O)C(C)C; Sar = CNCC(=O)O

Tests used:
[1] = system: SARS-CoV-2 infection of Vero-E6 cells; conditions: for Screening data: 48 h
[2] = biological target: human ACE2-VLP spike protein interaction (UniProt P0DTC2+Q9BYF1); assay type: binding, SARS-CoV-2
[3] = cited from earlier work
in vitro = conditions: African green monkey
[4] = biological target: T1, RBD-mimic1 peptide-ACE2 interaction (Homo sapiens, UniProt Q9BYF1); test: SPR competition (ABA injection) between compound and RBD-mimic1 peptide for immobilized ACE2; assay type: binding; conditions: for inhibition at 1 µM: read-out: 1:1 competition between compound vs RBD-mimic1 peptide at 1 μM
T1 construct: purchased Assay Matrix; R&D Systems (ACE2); Mimotopes, Australia (peptide)

human ACE2 = biological target: T2, human ACE2 (Homo sapiens, UniProt Q9BYF1); test: biochemical; assay type: binding; conditions: immobilized recombinant human ACE2; ± one SD; read-out: KD (nM) determined by SPR
T2 construct: purchased Assay Matrix; R&D Systems

[5] = system: SARS-CoV-2 infection of Vero-E6 cells; test: Dose-response inhibition of SARS-CoV-2 infection of Vero-E6 cells (24 h, in situ ELISA); assay type: cell-based; conditions: for IC50: Severe acute respiratory syndrome coronavirus 2, Vero C1008, 24 h infection, Vero-E6, MOI 0.12, read-out: IC50 (μM) Mean ± SD; for SI (selectivity index, CC50/IC50): Vero-E6 cells
SARS-CoV-2 spike protein = biological target: T3, SARS-CoV-2 spike protein (Severe acute respiratory syndrome coronavirus 2, UniProt P0DTC2); test: biochemical; assay type: binding
T3 construct: made in house; host or cells: HEK 293 cells

[6] = indicative of published Cmax values, ref not given, read-out: Cmax

T1 sequence (Q9BYF1 18-740 limits assumed): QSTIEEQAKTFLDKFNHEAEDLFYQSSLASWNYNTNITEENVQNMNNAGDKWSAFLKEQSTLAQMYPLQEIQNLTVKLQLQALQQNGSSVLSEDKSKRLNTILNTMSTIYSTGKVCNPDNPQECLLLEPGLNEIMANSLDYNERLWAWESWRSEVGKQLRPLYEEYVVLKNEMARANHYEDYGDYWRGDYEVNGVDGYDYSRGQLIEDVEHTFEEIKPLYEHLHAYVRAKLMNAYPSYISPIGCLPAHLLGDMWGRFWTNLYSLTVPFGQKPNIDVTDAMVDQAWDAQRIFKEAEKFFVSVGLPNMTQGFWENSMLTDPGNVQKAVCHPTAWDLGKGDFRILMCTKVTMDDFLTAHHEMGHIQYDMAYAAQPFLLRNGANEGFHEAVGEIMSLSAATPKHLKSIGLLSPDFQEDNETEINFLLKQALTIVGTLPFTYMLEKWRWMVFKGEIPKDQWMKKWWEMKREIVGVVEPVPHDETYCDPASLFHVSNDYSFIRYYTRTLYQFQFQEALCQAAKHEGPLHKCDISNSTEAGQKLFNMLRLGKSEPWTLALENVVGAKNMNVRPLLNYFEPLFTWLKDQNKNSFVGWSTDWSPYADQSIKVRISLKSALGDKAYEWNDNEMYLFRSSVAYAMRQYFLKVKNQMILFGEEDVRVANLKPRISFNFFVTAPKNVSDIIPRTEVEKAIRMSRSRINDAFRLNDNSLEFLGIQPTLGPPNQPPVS
Sequence of human ACE2-VLP spike protein interaction (Q9BYF1 18-740, one chain of several): as the sequence (Q9BYF1 18-740 limits assumed) above
T2 sequence (Q9BYF1 18-805): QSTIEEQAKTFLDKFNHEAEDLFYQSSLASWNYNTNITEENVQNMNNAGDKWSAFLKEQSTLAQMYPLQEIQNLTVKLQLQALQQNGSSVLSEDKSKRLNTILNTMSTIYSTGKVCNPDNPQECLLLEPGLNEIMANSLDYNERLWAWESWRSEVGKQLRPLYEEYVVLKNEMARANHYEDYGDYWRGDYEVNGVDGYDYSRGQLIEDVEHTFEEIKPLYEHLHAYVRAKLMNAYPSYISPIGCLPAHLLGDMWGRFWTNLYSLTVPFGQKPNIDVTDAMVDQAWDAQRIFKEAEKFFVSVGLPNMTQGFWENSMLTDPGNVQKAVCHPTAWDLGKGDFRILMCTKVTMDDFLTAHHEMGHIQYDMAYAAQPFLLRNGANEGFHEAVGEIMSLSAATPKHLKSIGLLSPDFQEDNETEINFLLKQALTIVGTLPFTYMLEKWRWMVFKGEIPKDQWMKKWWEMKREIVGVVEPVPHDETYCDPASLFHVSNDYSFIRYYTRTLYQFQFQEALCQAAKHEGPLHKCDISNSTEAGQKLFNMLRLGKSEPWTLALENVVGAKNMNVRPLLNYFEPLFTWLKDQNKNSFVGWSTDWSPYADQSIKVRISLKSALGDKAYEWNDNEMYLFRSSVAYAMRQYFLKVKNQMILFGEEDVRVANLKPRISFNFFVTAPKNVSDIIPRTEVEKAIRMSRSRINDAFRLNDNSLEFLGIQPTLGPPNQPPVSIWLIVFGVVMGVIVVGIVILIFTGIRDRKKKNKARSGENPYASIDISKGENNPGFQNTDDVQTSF

Row | Molecule | Screening result at the highest concentration tested [1] | Cmax [3, 6] [nM] | CC50 (in vitro) [µM] | inhibition at 1 µM [4] [%] | 1:1 Competition between compound vs CoV2 VLP [2] | Kd (human ACE2) [nM] | other results
1 | COc1ccc2c(O[C@@H]3C[C@H]4C(=O)N[C@]5(C(=O)NS(=O)(=O)C6CC6)C[C@H]5/C=C\CCCCN(C)C(=O)[C@@H]4C3)cc(-c3nc(C(C)C)cs3)nc2c1C [Simeprevir] | toxic | 2590 | 16.4 ± 0.8 |  |  |  | Toxicity to Vero-E6 cells (in words, discussion) [1]: toxic; Screening data ([1]; 10 μM): 100 μM: toxic, 10 μM: inactive; Screening data ([1]; 100 μM): 100 μM: toxic, 10 μM: inactive; Blocking (%) [2]: 88.6 ± 7.2%
2 | COC[C@H]1C[C@@H](c2ncc(-c3ccc4c(c3)COc3cc5c(ccc6nc([C@@H]7CC[C@H](C)N7C(=O)[C@@H](NC(=O)OC)C(C)C)[nH]c65)cc3-4)[nH]2)N(C(=O)[C@H](NC(=O)OC)c2ccccc2)C1 [Velpatasvir] | toxic | 293 ± 61.2 |  | 61.4 | 68.1% ± 9.44 | 24.9 ± 4.24 | Toxicity to Vero-E6 cells (in words, discussion) [1]: toxic; Screening data ([1]; 100 μM): 500 μM: toxic, 100 μM: inactive; Screening data ([1]; 500 μM): 500 μM: toxic, 100 μM: inactive
3 | CS(=O)(=O)c1cccc(C[C@H](NC(=O)c2c(Cl)cc3c(c2Cl)CCN(C(=O)c2ccc4ccoc4c2)C3)C(=O)O)c1 [Sodium lifitegrast] | active |  | > 5000 |  |  |  | IC50 [5]: 1300 µM; SI (selectivity index, CC50/IC50) [5]: >3.9; Cytotoxicity in screening at the highest concentration tested [1]: no apparent cytotoxicity; Blocking (%) [2]: 99.8% and 99.8 ± 6.4%; Cmax ([3]; in blood, indicative of published Cmax values, ref not given, read-out: Cmax in blood): 2.7 ± 2.1 nM; Cmax ([3]; in tears, indicative of published Cmax values, ref not given, read-out: Cmax in tears (converted)): 143000 nM; Kd (SARS-CoV-2 spike protein): 0.00192 µM; Cytotoxicity toward Vero-E6 cells (Vero-E6 cells): noncytotoxic
4 | COc1cc(-c2ccc(/N=N/c3ccc4c(S(=O)(=O)O)cc(S(=O)(=O)O)c(N)c4c3O)c(OC)c2)ccc1/N=N/c1ccc2c(S(=O)(=O)O)cc(S(=O)(=O)O)c(N)c2c1O [Chicago sky blue] |  |  |  | 2.47 | 7.29% ± 1.64 | 349 ± 29.8 | 
5 | Cc1cc(O)c(C(=O)N[C@@H](C(=O)N[C@@H]2C(=O)N3C(C(=O)O)=C(CSc4nnnn4C)CS[C@H]23)c2ccc(O)cc2)cn1 [Cefpiramide] | active | 88000 | > 1000 |  |  |  | IC50 [5]: > 1500 µM; Activity against SARS-CoV-2 infection in dose-response experiments ([5]; at […]): inactive; Cytotoxicity in screening at the highest concentration tested [1]: no apparent cytotoxicity; Screening data ([1]; 800 μM): 800 μM: ∼50% active; Blocking (%) [2]: 81.9% and 81.9 ± 8.4%; Cmax ([3]; intravenous, maximum dose 2,000 mg, single dose, read-out: Cmax): 205000 nM; Initial SPR screening for binding to the VLP spike protein (SARS-CoV-2 spike protein): binding; Kd (SARS-CoV-2 spike protein): 0.33 µM
6 | C[C@H]1O[C@@H](O[C@H]2[C@@H](O)C[C@H](O[C@H]3[C@@H](O)C[C@H](O[C@H]4CC[C@@]5(C)[C@H](CC[C@@H]6[C@@H]5CC[C@]5(C)[C@@H](C7=CC(=O)OC7)CC[C@]65O)C4)O[C@@H]3C)O[C@@H]2C)C[C@H](O)[C@@H]1O [Digitoxin] |  |  |  | 25.1 | 23.6% ± 4.25 | 1480 ± 87.6 | 
7 | N[C@@H](Cc1ccc(O)c(O)c1)C(=O)O [Levodopa] |  |  |  | 36.4 | 42.1% ± 5.17 | 13.6 ± 0.97 | 
8 | Cc1c2oc3c(C)ccc(C(=O)N[C@@H]4C(=O)N[C@H](C(C)C)C(=O)N5CCC[C@H]5C(=O)N(C)CC(=O)N(C)[C@@H](C(C)C)C(=O)O[C@@H]4C)c3nc-2c(C(=O)N[C@@H]2C(=O)N[C@H](C(C)C)C(=O)N3CCC[C@H]3C(=O)N(C)CC(=O)N(C)[C@@H](C(C)C)C(=O)O[C@@H]2C)c(N)c1=O [Dactinomycin] (I: T[dV]P[Sar][NMeV] / II: T[dV]P[Sar][NMeV]; ester I:1-I:C, II:1-II:C; linker I:N-II:N via Actinocin(9to1)) |  |  |  |  |  |  | Blocking (%) [2]: 69.7 ± 1.8%; Initial SPR screening for binding to the VLP spike protein (SARS-CoV-2 spike protein): binding
9 | CCc1c2c(nc3ccc(OC(=O)N4CCC(N5CCCCC5)CC4)cc13)-c1cc3c(c(=O)n1C2)COC(=O)[C@]3(O)CC [Irinotecan] |  |  |  | 100 | 100% ± 9.17 | 825 ± 112 | Toxicity to Vero-E6 cells (in words, discussion) [1]: toxic; Inhibition of the RBD-mimic1 peptide-ACE2 interaction (in words) ([4]; 1:1 ratio at 1 μM): complete inhibition; also recorded: complete blocking
10 | Cc1ccc(NC(=O)C2(c3ccc4c(c3)OC(F)(F)O4)CC2)nc1-c1cccc(C(=O)O)c1 [Lumacaftor] | active | 5420 | 314 ± 22.7 |  |  |  | IC50 [5]: 84 ± 3.7 µM; SI (selectivity index, CC50/IC50) [5]: 3.7; Cytotoxicity in screening at the highest concentration tested [1]: no apparent cytotoxicity; Blocking (%) [2]: 71.4 ± 3.1%; Kd (SARS-CoV-2 spike protein): 1.51 µM
11 | Cc1ccc(C(=O)Nc2ccc(S(=O)(=O)O)c3cc(S(=O)(=O)O)cc(S(=O)(=O)O)c23)cc1NC(=O)c1cccc(NC(=O)Nc2cccc(C(=O)Nc3cc(C(=O)Nc4ccc(S(=O)(=O)O)c5cc(S(=O)(=O)O)cc(S(=O)(=O)O)c45)ccc3C)c2)c1 [Suramin] |  | 1890 | > 1000 |  |  |  | IC50 [5]: 46.2 ± 1.6 µM; SI (selectivity index, CC50/IC50) [5]: >21.6; Antiviral potency [1]: 100%
12 | C[C@H]1O[C@@H](O[C@H]2[C@@H](O)C[C@H](O[C@H]3[C@@H](O)C[C@H](O[C@H]4CC[C@@]5(C)[C@H](CC[C@@H]6[C@@H]5C[C@@H](O)[C@]5(C)[C@@H](C7=CC(=O)OC7)CC[C@]65O)C4)O[C@@H]3C)O[C@@H]2C)C[C@H](O)[C@@H]1O [Digoxin] |  |  |  | 27.6 | 31.5% ± 4.55 | 1250 ± 97.2 | 
13 | COC(=O)N[C@H](C(=O)N1CC2(CC2)C[C@H]1c1ncc(-c2ccc3c(c2)C(F)(F)c2cc(-c4ccc5nc([C@@H]6[C@H]7CC[C@H](C7)N6C(=O)[C@@H](NC(=O)OC)C(C)C)[nH]c5c4)ccc2-3)[nH]1)C(C)C [Ledipasvir] |  | 406 | > 1000 | 79.4 | 84.9% ± 7.3 | 417 ± 50.7 | Toxicity to Vero-E6 cells (in words, discussion) [1]: toxic; Screening data ([1]; 400 μM): 400 μM: inactive
14 | CC#CC(=O)N1CCC[C@H]1c1nc(-c2ccc(C(=O)Nc3ccccn3)cc2)c2c(N)nccn12 [Acalabrutinib] | toxic | 1770 | 406 ± 21.2 | 77.4 | 81.2% ± 12.9 | 25.7 ± 0.91 | IC50 [5]: 184 µM; SI (selectivity index, CC50/IC50) [5]: 2.2; Screening data ([1]; 100 μM): 100 μM: inactive
15 | CO[C@H]1C[C@@H]2CC[C@@H](C)[C@@](O)(O2)C(=O)C(=O)N2CCCC[C@H]2C(=O)O[C@H]([C@H](C)C[C@@H]2CC[C@H](n3cnnn3)[C@H](OC)C2)CC(=O)[C@H](C)/C=C(\C)[C@@H](O)[C@@H](OC)C(=O)[C@H](C)C[C@H](C)/C=C/C=C/C=C/1C [Zotarolimus] |  |  |  | 69.4 | 71.6% ± 6.47 | 2760 ± 178 | 
16 | Epigallocatechin-3-gallate |  |  |  |  | 33.8% ± 4.67 |  | 1:1 competition between compound vs RBD-mimic1 peptide at 1 μM ([4]; 1:1 ratio at 1 μM, immobilized ACE2): 28.9% ± 1.43
17 | CC1(C)CCC(CN2CCN(c3ccc(C(=O)NS(=O)(=O)c4ccc(NCC5CCOCC5)c([N+](=O)[O-])c4)c(Oc4cnc5[nH]ccc5c4)c3)CC2)=C(c2ccc(Cl)cc2)C1 [Venetoclax] | toxic | 2400 ± 1300 | 4.9 ± 2.2 | 66.3 | 69.1% ± 7.31 | 290 ± 31.1 | Screening result at lower concentrations [1]: inactive; Screening data ([1]; 10 μM): 10 μM: 40 % active
